± gives the expanded uncertainty stated by the source.
Details: Liquid

CCCC[N+]1(C)CCCC1.O=S(=O)([N-]S(=O)(=O)C(F)(F)F)C(F)(F)F
mass density (293.49 K, 101.33 kPa): 1398 ± 1.6 kg/m3
mass density (293.5 K, 10000 kPa): 1404 ± 1.5 kg/m3
mass density (293.5 K, 20000 kPa): 1409.8 ± 1.9 kg/m3
mass density (293.5 K, 30000 kPa): 1415.5 ± 2.3 kg/m3
mass density (293.5 K, 40000 kPa): 1421 ± 2.8 kg/m3
mass density (293.51 K, 1000 kPa): 1398.6 ± 1.2 kg/m3
mass density (293.51 K, 5000 kPa): 1401 ± 1.4 kg/m3
mass density (302.66 K, 101.33 kPa): 1390.1 ± 1.5 kg/m3
mass density (312.62 K, 101.33 kPa): 1381.5 ± 1.5 kg/m3
mass density (322.31 K, 10000 kPa): 1379.7 ± 1.5 kg/m3
mass density (322.31 K, 20000 kPa): 1386 ± 1.9 kg/m3
mass density (322.31 K, 40000 kPa): 1398.2 ± 2.6 kg/m3
mass density (322.32 K, 5000 kPa): 1376.4 ± 1.3 kg/m3
mass density (322.32 K, 30000 kPa): 1392.2 ± 2.2 kg/m3
mass density (322.33 K, 1000 kPa): 1373.8 ± 1.2 kg/m3
mass density (322.35 K, 101.33 kPa): 1373.2 ± 1.5 kg/m3
mass density (332.63 K, 101.33 kPa): 1364.3 ± 1.5 kg/m3
mass density (342.54 K, 101.33 kPa): 1355.9 ± 1.5 kg/m3
mass density (352.31 K, 20000 kPa): 1361.5 ± 1.8 kg/m3
mass density (352.31 K, 40000 kPa): 1374.5 ± 2.5 kg/m3
mass density (352.32 K, 101.33 kPa): 1347.5 ± 1.4 kg/m3
mass density (352.32 K, 10000 kPa): 1354.5 ± 1.4 kg/m3
mass density (352.33 K, 5000 kPa): 1351 ± 1.3 kg/m3
mass density (352.33 K, 30000 kPa): 1368.1 ± 2.1 kg/m3
mass density (352.35 K, 1000 kPa): 1348.1 ± 1.2 kg/m3
mass density (373.31 K, 5000 kPa): 1333.2 ± 1.3 kg/m3
mass density (373.31 K, 30000 kPa): 1351.3 ± 2.1 kg/m3
mass density (373.32 K, 1000 kPa): 1330.1 ± 1.2 kg/m3
mass density (373.33 K, 101.33 kPa): 1329.5 ± 1.4 kg/m3
mass density (373.33 K, 10000 kPa): 1337 ± 1.4 kg/m3
mass density (373.34 K, 20000 kPa): 1344.2 ± 1.7 kg/m3
mass density (373.34 K, 40000 kPa): 1358 ± 2.4 kg/m3
mass density (391.26 K, 1000 kPa): 1314.9 ± 1.2 kg/m3
mass density (391.29 K, 10000 kPa): 1322 ± 1.4 kg/m3
mass density (391.29 K, 30000 kPa): 1337 ± 2 kg/m3
mass density (391.3 K, 101.33 kPa): 1314.1 ± 1.4 kg/m3
mass density (391.3 K, 5000 kPa): 1318.1 ± 1.3 kg/m3
mass density (391.32 K, 20000 kPa): 1329.6 ± 1.7 kg/m3
mass density (391.32 K, 40000 kPa): 1344 ± 2.4 kg/m3
mass density (414.93 K, 101.33 kPa): 1293.9 ± 1.3 kg/m3
mass density (414.93 K, 5000 kPa): 1298.1 ± 1.2 kg/m3
mass density (414.93 K, 10000 kPa): 1302.4 ± 1.4 kg/m3
mass density (414.93 K, 20000 kPa): 1310.5 ± 1.6 kg/m3
mass density (414.93 K, 30000 kPa): 1318.1 ± 1.9 kg/m3
mass density (414.93 K, 40000 kPa): 1325.6 ± 2.3 kg/m3
mass density (414.94 K, 1000 kPa): 1294.7 ± 1.2 kg/m3

CCCC[N+](C)(C)C.O=S(=O)([N-]S(=O)(=O)C(F)(F)F)C(F)(F)F [butyltrimethylammonium bis(trifluoromethylsulfonyl)imide]
mass density (293.48 K, 101.33 kPa): 1396.3 ± 1.6 kg/m3
mass density (293.48 K, 1000 kPa): 1396.8 ± 1.2 kg/m3
mass density (293.49 K, 5000 kPa): 1398.8 ± 1.3 kg/m3
mass density (293.5 K, 40000 kPa): 1416.7 ± 2.7 kg/m3
mass density (293.51 K, 10000 kPa): 1401.4 ± 1.5 kg/m3
mass density (293.51 K, 20000 kPa): 1406.6 ± 1.9 kg/m3
mass density (293.51 K, 30000 kPa): 1411.7 ± 2.3 kg/m3
mass density (302.84 K, 101.33 kPa): 1387.9 ± 1.5 kg/m3
mass density (312.82 K, 101.33 kPa): 1379 ± 1.5 kg/m3
mass density (322.29 K, 5000 kPa): 1373.5 ± 1.3 kg/m3
mass density (322.31 K, 20000 kPa): 1382.2 ± 1.8 kg/m3
mass density (322.32 K, 10000 kPa): 1376.4 ± 1.5 kg/m3
mass density (322.32 K, 40000 kPa): 1393.2 ± 2.6 kg/m3
mass density (322.33 K, 101.33 kPa): 1370.5 ± 1.5 kg/m3
mass density (322.33 K, 30000 kPa): 1387.7 ± 2.2 kg/m3
mass density (322.34 K, 1000 kPa): 1371.1 ± 1.2 kg/m3
mass density (332.75 K, 101.33 kPa): 1361.3 ± 1.5 kg/m3
mass density (342.67 K, 101.33 kPa): 1352.5 ± 1.5 kg/m3
mass density (352.27 K, 20000 kPa): 1356.9 ± 1.8 kg/m3
mass density (352.29 K, 10000 kPa): 1350.5 ± 1.4 kg/m3
mass density (352.3 K, 5000 kPa): 1347.3 ± 1.3 kg/m3
mass density (352.32 K, 40000 kPa): 1369.1 ± 2.5 kg/m3
mass density (352.34 K, 30000 kPa): 1363 ± 2.1 kg/m3
mass density (352.36 K, 101.33 kPa): 1343.9 ± 1.4 kg/m3
mass density (352.36 K, 1000 kPa): 1344.6 ± 1.2 kg/m3
mass density (373.28 K, 5000 kPa): 1328.9 ± 1.2 kg/m3
mass density (373.3 K, 10000 kPa): 1332.4 ± 1.4 kg/m3
mass density (373.3 K, 20000 kPa): 1339.2 ± 1.7 kg/m3
mass density (373.31 K, 101.33 kPa): 1325.5 ± 1.4 kg/m3
mass density (373.31 K, 30000 kPa): 1345.8 ± 2 kg/m3
mass density (373.33 K, 1000 kPa): 1326.2 ± 1.1 kg/m3
mass density (373.35 K, 40000 kPa): 1352.3 ± 2.4 kg/m3
mass density (391.25 K, 30000 kPa): 1331.2 ± 2 kg/m3
mass density (391.26 K, 10000 kPa): 1316.9 ± 1.4 kg/m3
mass density (391.27 K, 1000 kPa): 1310.5 ± 1.1 kg/m3
mass density (391.28 K, 101.33 kPa): 1309.7 ± 1.4 kg/m3
mass density (391.28 K, 20000 kPa): 1324.2 ± 1.7 kg/m3
mass density (391.31 K, 5000 kPa): 1313.1 ± 1.2 kg/m3
mass density (391.31 K, 40000 kPa): 1338.1 ± 2.3 kg/m3
mass density (414.89 K, 30000 kPa): 1312.1 ± 1.9 kg/m3
mass density (414.92 K, 40000 kPa): 1319.5 ± 2.2 kg/m3
mass density (414.93 K, 101.33 kPa): 1288.6 ± 1.3 kg/m3
mass density (414.94 K, 5000 kPa): 1292.5 ± 1.2 kg/m3
mass density (414.94 K, 10000 kPa): 1296.6 ± 1.3 kg/m3
mass density (414.94 K, 20000 kPa): 1304.5 ± 1.6 kg/m3
mass density (414.95 K, 1000 kPa): 1289.4 ± 1.1 kg/m3

Source: the NIST ThermoML archive (doi:10.1021/je8002817)
